Results reported in US20100029509A1, “NOVEL METHODS” (NATURAL ENVIRONMENT RESEARCH COUNCIL, priority 2006, published 2010).

What was measured:
[1] = test system: xylR/Pu regulation system (Pu promoter activity); test: Induction of Pu promoter (relative bioluminescence, luxCDABE reporter) in Acinetobacter ADP1_pu_lux_xylR; type: cell-based, Acinetobacter baylyi ADP1; settings: for Induction of Pu promoter: ADP1_pu_lux_xylR, inducer 100 μM in LB, following 30 hrs incubation; for Induction of Pu promoter activity: strain ADPWH_Pu_lux_xylR, bioluminescence from lux genes
Method: Pu promoter activity was monitored by measuring relative bioluminescence (bioluminescence divided by OD600). For each measurement, at each time point 100 μl samples were analyzed in triplicate in a well of a black, clear-bottom 96-well microplate (Fisher Scientific). At OD600 and Bioluminescence were measured using a Synergy HT Multi-Detection Microplate Reader (Bio-Tek™).
A single colony of Acinetobacter sp. ADP_pu_lux_xylR was separately inoculated into 5 ml LB medium in a 30-ml glass universal tube. Toluene, o-, m-, p-xylenes, phenol, benzene, naphthalene, 2-, 3-, or 4-hydroxybenzoic, benzoate or catechol was added into LB (100 μM) to assay induction of Pu. Samples were incubated at 20, 28, 30, 34 or 37° C. with shaking at 150 rpm. Samples were repeatedly loaded on black 96-well microplate for bioluminescence and OD600 measurement for 30 hours of incubation.

[2] = test system: Pu promoter activity; test: Catabolic repression of Pu activity in ADP1_pu_lux_xylR grown in minimal medium; type: cell-based, Acinetobacter baylyi ADP1
Method: Pu promoter activity was monitored by measuring relative bioluminescence (bioluminescence divided by OD600). For each measurement, at each time point 100 μl samples were analyzed in triplicate in a well of a black, clear-bottom 96-well microplate (Fisher Scientific). At OD600 and Bioluminescence were measured using a Synergy HT Multi-Detection Microplate Reader (Bio-Tek™). To examine the effect of catabolic repression Acinetobacter sp. ADP1_pu_lux_xylR was inoculated into 5 ml MM supplemented with 50 mM glucose or succinate as a sole carbon source in a 30-ml glass universal tube. […] The bacterial samples were incubated at 28° C. shaker with shaking at 150 rpm. […] For each treatment, three replicates were carried out. Samples were taken and measured for bioluminescence and OD600 every 30 min.

[3] = test system: salA promoter operably linked to the lux genes; settings: LB + 6 μg/ml tetracycline + 2 mM salicylate, FIG. 11
[4] = test system: xylR/Pu regulation system (Pu promoter activity); test: Induction of Pu promoter (relative bioluminescence, luxCDABE reporter) in Acinetobacter ADP1_pu_lux_xylR; type: cell-based, Acinetobacter baylyi ADP1; settings: ADP1_Pu_lux_xylR on LB agar with 10 mM glucose, FIG. 1B; uninduced cells remained dark

Compound | Induction of Pu promoter [1] | also measured
O=C(O)c1cccc(O)c1 [3-hyroxybenzoic] | cannot be induced | –
O=C(O)CCC(=O)O [succniate, succinate] | – | Repression of Pu activity by sole carbon source ([2]; minimal medium with 50 mM carbon source, toluene, m-, p- or o-xylene 500 μM as inducers, 28° C., FIG. 3A): did
O=C(O)c1ccccc1O [2-hydroxybenzoic (salicylic acid), salicylic acid] | cannot be induced | –
O=C(O)c1ccc(O)cc1 [4-hydroxybenzoic] | cannot be induced | –
Cc1ccc(C)cc1 [p-xylene] | – | Induction of Pu promoter activity [1]: can be induced
Cc1ccccc1 [toluene] | – | Induction of Pu promoter activity [1]: can be induced
O=C(O)c1ccccc1 [benzoate] | cannot be induced | –
6-phosphogluconic acid trisodium salt [6-phosphogluconate, reference compound] | – | Effect on Pu activity of added candidate repression signal molecule ([2]; added to MM-glucose at 0.1-300 μM after maximal induction by m-xylene, data not shown): did not affect Pu activity
Oc1ccccc1O [catechol] | cannot be induced | –
c1ccccc1 [benzene] | cannot be induced | –
O=C(O)c1ccccc1O [salicylate] | – | Activation by salicylate, Transformant B (negative) [3]: not activated
xylene | – | Bioluminescence on agar medium when induced by vapors [4]: strong bioluminescence
Cc1cccc(C)c1 [m-xylene] | – | Induction of Pu promoter activity [1]: can be induced
Oc1ccccc1 [phenol] | cannot be induced | –
Cc1ccccc1C [o-xylene] | – | Induction of Pu promoter activity [1]: can be induced
c1ccc2ccccc2c1 [naphthalene] | cannot be induced | –
